Source: ChEMBL document CHEMBL1201862, “PubChem BioAssay data set” (2004)
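Assay format: 96-well plates, 48-hour exposure. Here, GI50 denotes the concentration required for 50% inhibition of growth.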 Calls of active or inactive are those of the source. Rule as the data show it: active = GI50 up to about 1.1 µM and inactive = higher.

Key:
Experiment in all cases: NCI anticancer screen, dose series, 48 h
[1] = tested on: 786-0
[2] = tested on: A549
[3] = tested on: ACHN
[4] = tested on: HL-60
[5] = tested on: MCF7
[6] = tested on: MDA-MB-231
[7] = tested on: NCI-H23
[8] = tested on: NCI/ADR-RES
[9] = tested on: OVCAR-3
[10] = tested on: RPMI-8226
[11] = tested on: SF-268
[12] = tested on: SK-MEL-5
[13] = tested on: SK-OV-3
[14] = tested on: SN12C
[15] = tested on: SNB-75
[16] = tested on: TK-10
[17] = tested on: U-251
[18] = tested on: UO-31
[19] = tested on: BT-549

Measured: GI50

O=[N+]([O-])/C(C(Cl)=C(Cl)Cl)=C(/Cl)Sc1ccccc1
active: [4] 0.139 µM | [8] 1.08 µM | [10] 0.306 µM
inactive: [1] 1.31 µM | [2] 3.6 µM | [3] 2.08 µM | [5] 1.43 µM | [6] 1.86 µM | [7] 1.77 µM | [9] 2.05 µM | [11] 2.29 µM | [12] 2.12 µM | [13] 20.1 µM | [14] 1.81 µM | [15] 15 µM | [16] 2.67 µM | [17] 2.25 µM | [18] 1.42 µM

O=C1/C(=C/c2ccc(Cl)cc2)N=C(c2ccccc2)N1c1nc2ccccc2s1
inactive: [1] > 100 µM | [3] 62.5 µM | [4] 4.03 µM | [5] 40.1 µM | [6] 67.8 µM | [7] 30.4 µM | [8] 34 µM | [9] 38.5 µM | [10] 39.7 µM | [11] 38.4 µM | [12] 31.6 µM | [13] > 100 µM | [15] 77.3 µM | [16] 56.2 µM | [17] 42.8 µM | [18] 37.3 µM

CC(=O)c1c2c(cc3c1CC1(Cc4ccccc4C1=O)C3)CCC2 (stereo not drawn)
inactive: [1] 22.3 µM | [2] 28.2 µM | [3] 21.7 µM | [4] 5.2 µM | [5] 17.1 µM | [6] 22.3 µM | [7] 16 µM | [8] 14.5 µM | [9] 15.1 µM | [10] 5.66 µM | [11] 37.9 µM | [12] 10.3 µM | [13] 48.9 µM | [14] 21.5 µM | [15] 32 µM | [16] 20.5 µM | [17] 24.4 µM | [18] 21.2 µM

O=C(NCCN1C(=O)CN=C(c2ccc(Cl)cc2)c2cc(Cl)ccc21)OCc1ccccc1
inactive: [1] 14.7 µM | [2] 10.6 µM | [3] 16.3 µM | [19] 15.6 µM | [4] 10.1 µM | [6] 14.8 µM | [7] 14.1 µM | [8] 11.9 µM | [9] 12.6 µM | [10] 19.7 µM | [11] 12.4 µM | [12] 15.2 µM | [13] 52.2 µM | [14] 14.3 µM | [15] 18.1 µM | [16] 16.7 µM | [17] 15.2 µM | [18] 10.9 µM

Cc1nc2c(O)cc3c4c(=O)n(C)c(=O)n(C)c4n(Cc4ccccc4)c3c2nc1C
inactive: [1] 17 µM | [2] 19.2 µM | [3] 17.9 µM | [4] 24.2 µM | [5] 15.8 µM | [6] 20.4 µM | [7] 19.3 µM | [8] 25.8 µM | [10] 19.1 µM | [11] 17.6 µM | [12] 18.1 µM | [13] 17.1 µM | [14] 19.9 µM | [16] 17.6 µM | [17] 18.3 µM | [18] 17.6 µM

CC(C)(C)OC(=O)N(CCCN)CCCCN(CCCN)C(=O)OC(C)(C)C
inactive: [1] > 100 µM | [2] > 100 µM | [3] > 100 µM | [19] > 100 µM | [4] > 100 µM | [5] > 100 µM | [7] > 100 µM | [8] > 100 µM | [9] > 100 µM | [10] > 100 µM | [11] > 100 µM | [12] > 100 µM | [13] > 100 µM | [15] > 100 µM | [16] > 100 µM | [17] > 100 µM | [18] > 100 µM
